Literature values, collected in patent US12268662B2, “Formulations comprising carbachol and brimonidine to enhance anti- presbyopia effects” (VISUS THERAPEUTICS, INC., priority 2021, dated 2025).

Experiments:
[1] = not given; remark: listed apart in the source
[2] = not given; remark: listed apart in the source

solubility: 1 gm/mL
log P [1]: −3.78
pKa [2]: about 15
SMILES: C[N+](C)(C)CCOC(N)=O [Carbachol]
